Measured values: patent US8492405B2, “Glucokinase-activating fused heterocyclic compounds and methods of treating diabetes and obesity” (Takeda Pharmaceutical Company Limited, priority 2006, dated 2013)

Assays:
[1] = target: T1, GST-hLGK1 (human liver type GK) (Homo sapiens, UniProt P35557); assay: Determination of GK activity value (Mant-ATP/Mant-ADP capillary electrophoresis); type: biochemical; conditions: GK activation; GST-hLGK1, D-glucose, 37° C. for 60 min
T1 construct: made in house; host or cells: Escherichia coli BL21
T1 sequence (P35557 1-464 isoform P35557-3): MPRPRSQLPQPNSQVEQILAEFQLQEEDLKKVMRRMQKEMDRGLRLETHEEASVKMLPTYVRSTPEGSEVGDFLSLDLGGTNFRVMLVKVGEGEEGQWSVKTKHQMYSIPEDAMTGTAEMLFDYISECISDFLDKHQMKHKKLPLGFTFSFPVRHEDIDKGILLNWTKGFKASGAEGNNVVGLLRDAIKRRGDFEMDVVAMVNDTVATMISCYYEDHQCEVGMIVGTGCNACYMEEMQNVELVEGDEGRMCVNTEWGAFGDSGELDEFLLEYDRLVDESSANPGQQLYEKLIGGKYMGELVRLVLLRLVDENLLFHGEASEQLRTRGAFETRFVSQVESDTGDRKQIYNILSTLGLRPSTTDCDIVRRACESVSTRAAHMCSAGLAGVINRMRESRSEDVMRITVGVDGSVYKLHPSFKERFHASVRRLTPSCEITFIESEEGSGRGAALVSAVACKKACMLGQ
Procedure: A solution (5 μL) of test compound in 50% dimethyl sulfoxide was added to each well of 384 well black plate (Nalge Nunc International K.K.). Then, a solution (35 μL) obtained by diluting GST-hLGK1 obtained in Reference Example 2A with measurement buffer (containing 50 mM HEPES (pH 7.4), 200 mM KCl, 5 mM MgCl2, 2.5 mM DTT and 50 μM 2′-(or -3′)—O—(N-methylanthraniloyl) adenosine 5′-triphosphate (Mant-ATP) (Jena Bioscience GmbH)) to 6 μg/mL was added to each well.
Each well was stood at 37° C. for 10 min, and 25 mM D-glucose solution (10 μL) was added to start the reaction.
Each well after the reaction was stood at 37° C. for 60 min, and the reaction was quenched by adding 25 μL of a quenching solution (containing 200 mM HEPES (pH 7.4), 20 mM MgCl2, 200 mM EDTA, 0.03% Triton-X 100, 0.3% Coating 3 reagent (Caliper Life Sciences, Inc.)).
2′-(or -3′)-O—(N-methylanthraniloyl)adenosine 5′-triphosphate (Mant-ATP, substrate) and Mant-ADP (reaction resultant product) were separated from each well after the reaction by a microchip type capillary electrophoresis apparatus 250 HTS (Caliper Life Sciences, Inc.). The reaction rate [(reaction resultant product peak height)/(reaction resultant product peak height+substrate peak height)×100(%)] was calculated from the ratio of the substrate peak height and reaction resultant product peak height obtained by fluorescence detection (excitation wavelength 355 nm, measurement wavelength 460 nm) and used as the index of GK activity.
As a control group, the reaction rate was calculated in the same manner as above except that “solution in 50% dimethyl sulfoxide (free of a test compound)” was used instead of “solution of test compound in 50% dimethyl sulfoxide”.
Using the percentage obtained by subtracting the reaction rate of the control group from the reaction rate of the well added with the test compound (test compound addition group) as a GK activation value of the test compound, a concentration dependency curve of the test compound was drawn, and the concentration of the test compound at the middle point between the maximum activity value of the test compound addition group and the activity value of the control group was taken as an EC50 value.

| EC50 [1] | melting point | Compound |
| --- | --- | --- |
| 3.6 µM | 193 °C | CCOC(=O)c1cc2nc(C)n(Cc3ccccc3)c2[nH]1 [Example 1, ethyl 3-benzyl-2-methyl-3,4-dihydropyrrolo[2,3-d]imidazole-5-carboxylate] |
|  | 122 °C | CCOC(=O)c1cc2sc(C)c(N(C)C(=O)OCc3ccccc3)c2[nH]1 [Example 2, ethyl 3-{[(benzyloxy)carbonyl](methyl)amino}-2-methyl-4H-thieno[3,2-b]pyrrole-5-carboxylate] |
|  | 161 °C | CCOC(=O)c1cc2sc(C)c(N(C)S(=O)(=O)c3cccs3)c2[nH]1 [Example 3, ethyl 2-methyl-3-[methyl(2-thienylsulfonyl)amino]-4H-thieno[3,2-b]pyrrole-5-carboxylate] |
| 0.074 µM | 140 °C | Cc1sc2cc(C3=NCCS3)[nH]c2c1N(C)S(=O)(=O)c1cccs1 [Example 5, N-[5-(4,5-dihydro-1,3-thiazol-2-yl)-2-methyl-4H-thieno[3,2-b]pyrrol-3-yl]-N-methylthiophene-2-sulfonamide] |
|  | 222 °C | Cc1sc2cc(C(=O)NCC3(SCc4ccccc4)CCNCC3)[nH]c2c1N(C)S(=O)(=O)c1cccs1 [Example 6, N-{[4-(benzylthio)piperidin-4-yl]methyl}-2-methyl-3-[methyl(2-thienylsulfonyl)amino]-4H-thieno[3,2-b]pyrrole-5-carboxamide] |
|  | 196 °C | Cc1sc2cc(C3=NCC4(CCNCC4)S3)[nH]c2c1N(C)S(=O)(=O)c1cccs1 [Example 7, N-methyl-N-[2-methyl-5-(1-thia-3,8-diazaspiro[4.5]deca-2-en-2-yl)-4H-thieno[3,2-b]pyrrol-3-yl]thiophene-2-sulfonamide] |
| 0.16 µM | 231 °C | CC(=O)N1CCC2(CC1)CN=C(c1cc3sc(C)c(N(C)S(=O)(=O)c4cccs4)c3[nH]1)S2 [Example 8, N-[5-(8-acetyl-1-thia-3,8-diazaspiro[4.5]deca-2-en-2-yl)-2-methyl-4H-thieno[3,2-b]pyrrol-3-yl]-N-methylthiophene-2-sulfonamide] |
|  | 135 °C | CCOC(=O)C(=O)NNC(=O)c1cc2sc(C)c(N(C)S(=O)(=O)c3cccs3)c2[nH]1 [Example 9, ethyl [2-({2-methyl-3-[methyl(2-thienylsulfonyl)amino]-4H-thieno[3,2-b]pyrrol-5-yl}carbonyl)hydrazino](oxo)acetate] |
|  | 209 °C | CCOC(=O)c1nnc(-c2cc3sc(C)c(N(C)S(=O)(=O)c4cccs4)c3[nH]2)s1 [Example 10, ethyl 5-{2-methyl-3-[methyl(2-thienylsulfonyl)amino]-4H-thieno[3,2-b]pyrrol-5-yl}-1,3,4-thiadiazole-2-carboxylate] |
|  | 185 °C | COC(OC)C1CN=C(c2cc3sc(C)c(N(C)S(=O)(=O)c4cccs4)c3[nH]2)S1 (centres unmarked) [Example 12, N-{5-[5-(dimethoxymethyl)-4,5-dihydro-1,3-thiazol-2-yl]-2-methyl-4H-thieno[3,2-b]pyrrol-3-yl}-N-methylthiophene-2-sulfonamide] |
|  | 187 °C | CON(C)C(=O)c1cc2sc(C)c(N(C)S(=O)(=O)c3cccs3)c2[nH]1 [Example 13, N-methoxy-N,2-dimethyl-3-[methyl(2-thienylsulfonyl)amino]-4H-thieno[3,2-b]pyrrole-5-carboxamide] |
|  | 220 °C | CC(=O)c1cc2sc(C)c(N(C)S(=O)(=O)c3cccs3)c2[nH]1 [Example 14, N-(5-acetyl-2-methyl-4H-thieno[3,2-b]pyrrol-3-yl)-N-methylthiophene-2-sulfonamide] |
|  | 122 °C | CCOC(=O)c1cc2c([nH]1)c(N(C)S(=O)(=O)c1cccs1)cn2CC [Example 15, ethyl 4-ethyl-6-[methyl(2-thienylsulfonyl)amino]-1,4-dihydropyrrolo[3,2-b]pyrrole-2-carboxylate] |
| 0.35 µM | 163 °C | CCn1cc(N(C)S(=O)(=O)c2cccs2)c2[nH]c(C3=NCCS3)cc21 [Example 17, N-[5-(4,5-dihydro-1,3-thiazol-2-yl)-1-ethyl-1,4-dihydropyrrolo[3,2-b]pyrrol-3-yl]-N-methylthiophene-2-sulfonamide] |
| 0.43 µM | 120 °C | CCOC(=O)c1cc2c([nH]1)c(N(C)S(=O)(=O)c1cccs1)cn2Cc1ccccc1 [Example 18, ethyl 4-benzyl-6-[methyl(2-thienylsulfonyl)amino]-1,4-dihydropyrrolo[3,2-b]pyrrole-2-carboxylate] |
